Assay results published in patent US10695331B2, “Veterinary composition comprising imidacloprid, moxidectin and praziquantel for cutaneous topical application (spot on), for the treatment and prevention of ecto and endoparasitoses affecting dogs” (LABYES USA, LLC, priority 2016, dated 2020).
Like-named read-outs stand apart in the source and are kept apart here.

Tests used:
[1] = pigs; cited from earlier work
[2] = dogs; cited from earlier work
[3] = sheep; cited from earlier work
[4] = cows; cited from earlier work
[5] = in vivo; cited from earlier work
[6] = oral, 0.5 and 2.0 mg/kg/12 hours, 36 days; increase of four times the original dose; cited from earlier work
in vivo = conditions: dog
Protocol: In a period not longer than 2 hours, all of the samples were sent to the Laboratory, where they were centrifuged, and their plasma separated and frozen to −20° C. until the samples were quantified.

[7] = subcutaneous administration, 5 mg/kg, Xie et al. 2011; cited from earlier work
[8] = cited from earlier work
[9] = percutaneous, dogs (Sarasola, 2002); cited from earlier work
[10] = percutaneous, cats (Sarasola, 2002); cited from earlier work
[11] = Plasma concentrations of Praziquantel

## CO/N=C1\C[C@]2(C[C@@H]3C[C@@H](C/C=C(\C)C[C@@H](C)/C=C/C=C4\CO[C@@H]5[C@H](O)C(C)=C[C@@H](C(=O)O3)[C@]45O)O2)O[C@H](/C(C)=C/C(C)C)[C@H]1C [Moxidectin]
[1]
  half-life of elimination: 12 h
[2]
  half-life of elimination: 43.2 h
[3]
  half-life of elimination: 64.8 h
[4]
  half-life of elimination: 67.2 h
[5]
  time of plasma spikes: 3 to 5 h
[6]
  average increase of the concentrations in plasma: more than 8 times

## O=C(C1CCCCC1)N1CC(=O)N2CCc3ccccc3C2C1 (stereo not shown) [Praziquantel]
In vivo; 0 h
  Plasma concentrations of Praziquantel: 0.0 ng/mL
In vivo; 14.5 mg/kg
  time up to which plasma concentrations are detectable: up to 48 hours
In vivo; [11]
  concentration at 0 h: 0 ng/mL
  concentration at 6 h: 63.7 ng/mL
In vivo; topical or ocular, 14.5 mg/kg
  AUC/inf, Max: 1321
  AUC/inf, Min: 626.6
  CMAX, Min: 38.6 ng/mL
  TMAX, Min: 4 h
  Tmax: 4 h
In vivo; topical or ocular, 14.5 mg/kg, AUC/inf, Median
  AUC: 997 ng·h/mL
In vivo; topical or ocular, 14.5 mg/kg, Max
  Cmax: 77.6 ng/mL
In vivo; topical or ocular, 14.5 mg/kg, Median
  Cmax: 53.9 ng/mL
In vivo; topical or ocular, 14.5 mg/kg, TMAX
  Tmax: 6 h
In vivo; topical or ocular, 14.5 mg/kg, TMAX, Median
  Tmax: 5 h
In vivo; topical or ocular, 14.5 mg/kg, Tmax range
  Tmax: 4 to 6 h
[7]
  Cmax: 47.82 ng/mL
  Tmax: 1.45 h
  plasma values after 48 hours: below 10 ng/ml
[8]; oral dose
  part of an oral dose excreted with no changes: less than 1%
[8]; up to
  concentration in tissues and plasma: 14-20%

## CO[C@H]1C[C@H](O[C@@H]2/C(C)=C/C[C@@H]3C[C@@H](C[C@]4(CC[C@H](C)[C@@H](C5CCCCC5)O4)O3)OC(=O)[C@@H]3C=C(C)/C(=N/O)[C@H]4OC/C(=C\C=C\[C@@H]2C)[C@]43O)O[C@@H](C)[C@@H]1O [Selamectin]
[9]
  bioavailability: 4%
[10]
  bioavailability: 74%
